system: type 4 phosphodiesterases; test: Inhibition of type 4 phosphodiesterase enzymatic activity (cytosolic preparation from U937 cells); assay type: biochemical; conditions: PDE4 from cytosolic preparation of human cell line U937; inhibitor concentration range 0.1 to 100 µM
Protocol: The capacity of the compounds of formula (I) of the invention to inhibit cyclic nucleotide phosphodiesterases is evaluated by measuring their IC50 (concentration needed to inhibit 50% of the enzymatic activity). In the case of PDE4 enzymes, this value is compared to the IC50 value for rolipram, a reference inhibitor for PDE4 enzymes.
The type 4 phosphodiesterases are obtained from a cytosolic preparation extracted from a cell line of human origin, U937, according to the method adapted from T. J. Torphy et al., 1992, J. Pharm. Exp. Ther. 263: 1195-1205.
The measurement of the enzymatic activity for the various types of PDE, and in particular the PDE4 enzymes, is carried out according to a method adapted from W. J. Thomson et al. 1979, Advances in Cyclic Nucleotide Research, Vol. 10: 69-92, ed. G. Brooker et al. Raven Press, NY.
For the determination of the IC50 value, the enzymatic activity is measured in the presence of the inhibitor in a concentration range from 0.1 to 100 µM.

In order of rising IC50:
1. COc1cc2c3c(n1)C(c1ccccc1)=NC(NC(=O)c1cccnc1)C(=O)N3CC2 (stereo not drawn) [first enantiomer (Rt=5.79 min) of compound of Example 1, N-(4-Methoxy-9-oxo-6-phenyl-1,2,8,9-tetrahydro-5,7,9a-triaza-benzo[cd]azulen-8-yl)-nicotinamide]  4.3 µM
2. COc1cc2c3c(n1)C(c1ccccc1)=NC(NC(=O)c1cccnc1)C(=O)N3CC2 (racemic) [racemate of compound of Example 1, N-(4-Methoxy-9-oxo-6-phenyl-1,2,8,9-tetrahydro-5,7,9a-triaza-benzo[cd]azulen-8-yl)-nicotinamide]  6.1 µM
3. COc1cc2c3c(n1)C(c1ccccc1)=NC(NC(=O)c1cccnc1)C(=O)N3CC2 (stereo not drawn) [second enantiomer (Rt = 8.15 min) of compound of Example 1, N-(4-Methoxy-9-oxo-6-phenyl-1,2,8,9-tetrahydro-5,7,9a-triaza-benzo[cd]azulen-8-yl)-nicotinamide]  73 µM

— patent EP1526135A1, “Azabenzodiazepines as pde4 inhibitors” (Warner-Lambert Company LLC, priority 2003, dated 2005)
